Data taken from US11040954B1, “CXCR3 receptor agonists” (RECEPTOS LLC, priority 2016, dated 2021).

Target: T1, CXCR3 (Homo sapiens, UniProt P49682)
T1 construct: host or cells: CHO-K1 (cAMP Hunter CHOK1 CXCR3 Gi cell line)
T1 sequence (P49682 1-368): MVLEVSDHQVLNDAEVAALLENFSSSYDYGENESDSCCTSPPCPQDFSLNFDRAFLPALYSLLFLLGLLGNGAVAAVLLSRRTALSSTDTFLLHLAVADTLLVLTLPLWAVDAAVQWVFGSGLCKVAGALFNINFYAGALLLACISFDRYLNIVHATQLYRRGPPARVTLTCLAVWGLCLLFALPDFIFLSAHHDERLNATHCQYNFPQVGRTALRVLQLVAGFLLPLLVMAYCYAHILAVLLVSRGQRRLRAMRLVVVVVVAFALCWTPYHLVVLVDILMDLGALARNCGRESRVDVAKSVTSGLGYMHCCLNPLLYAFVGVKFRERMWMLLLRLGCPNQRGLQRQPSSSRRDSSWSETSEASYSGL
Experiment: CXCR3 cAMP agonist assay (cAMP Hunter CHOK1 CXCR3 Gi cell line, forskolin-stimulated, HitHunter cAMP detection)
Format: cell-based
Settings: cAMP Hunter CHOK1 CXCR3 Gi cells, 20 μM forskolin, 30 minutes; read-out: Activity (CXCR3 cAMP agonist assay compound EC50)
Outline: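 Agonist activity was measured as suppression of forskolin (20 μM)-induced cAMP, read by luminescent enzyme-fragment complementation with a cAMP standard curve and CXCL11 defining full efficacy. Assay used 50,000 CXCR3 Gi CHOK1 cells/well in pH 7.4 HEPES-buffered HBSS with 0.1% BSA, compound 0-10 μM over 12 points, 30 min incubation.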

| EC50 | Compound |
| --- | --- |
| 50 to 250 nM | CCN(CC)C(=O)CCC(=O)N1Cc2ccccc2C[C@H]1C(=O)N[C@@H](CCN)C(=O)Nc1ccc(Cl)c(C)c1 [Compound 12-14] |
| < 50 nM | Cc1cc(NC(=O)[C@H](CCN)NC(=O)[C@@H]2Cc3ccccc3CN2C(=O)CCC(=O)N2CCC[C@H](C)C2)ccc1Cl [Compound 12-58] |
| < 50 nM | NCC[C@H](NC(=O)[C@@H]1Cc2ccccc2CN1C(=O)CCC(=O)N1CCN2CCC[C@@H]2C1)C(=O)Nc1ccc(Cl)c(Cl)c1F [Compound 15-49] |
| < 50 nM | Cc1cc(NC(=O)[C@H](CCN)NC(=O)[C@@H]2Cc3ccccc3CN2C(=O)CCC(=O)NCCC(C)C)ccc1Cl [Compound 12-80] |
| 50 to 250 nM | Cc1cc(NC(=O)[C@H](CCN)NC(=O)[C@@H]2Cc3ccccc3CN2C(=O)CCC(=O)N2CCC(C#N)C2)ccc1Cl (stereo partly drawn) [Compound 12-70] |
| 50 to 250 nM | Cc1ccc(NC(=O)[C@H](CCN)NC(=O)[C@@H]2Cc3ccccc3CN2C(=O)CCC(=O)c2ccccc2)c(OC(F)(F)F)c1 [Compound 13-7] |
| < 50 nM | Cc1cc(NC(=O)[C@H](CCN)NC(=O)[C@@H]2Cc3ccccc3CN2C(=O)CCC(=O)N2CC[C@@H](N(C)C)C2)ccc1Cl [Compound 12-50] |
| 50 to 250 nM | CN1CCN(CC[C@H](NC(=O)[C@@H]2Cc3ccccc3CN2C(=O)CCC(=O)c2ccccc2)C(=O)Nc2ccc3c(c2)CCC3)CC1 [Compound 24-2] |
| < 50 nM | CC1CN(C(=O)CCC(=O)N2Cc3ccccc3C[C@H]2C(=O)N[C@@H](CCN)C(=O)Nc2ccc(Cl)c(Cl)c2F)CC1C (stereo partly drawn) [Compound 15-29] |
| < 50 nM | CCC1CCN(C(=O)CCC(=O)N2Cc3ccccc3C[C@H]2C(=O)N[C@@H](CCN)C(=O)Nc2ccc(Cl)c(C)c2)CC1 [Compound 12-61] |
| < 50 nM | NC12CC(CC(NC(=O)[C@@H]3Cc4ccccc4CN3C(=O)CCC(=O)c3ccccc3)C(=O)Nc3ccc(Cl)c(Cl)c3F)(C1)C2 (mixture of isomers) [Compound 22-3] |
| < 50 nM | Cc1cc(NC(=O)[C@H](CCN)NC(=O)[C@@H]2Cc3ccccc3CN2C(=O)CCC(=O)N(C)C(C)(C)C)ccc1Cl [Compound 12-93] |
| 250 to 500 nM | Cc1ccc(NC(=O)[C@H](CCN)NC(=O)[C@@H]2Cc3ccccc3CN2C(=O)CCC(=O)c2ccccc2)c(C(F)(F)F)c1 [Compound 14-13] |
| 50 to 250 nM | NCC[C@H](NC(=O)[C@@H]1Cc2ccccc2CN1C(=O)CCC(=O)c1ccccc1)C(=O)Nc1cc(Cl)ccc1C(F)(F)F [Compound 14-14] |
| < 50 nM | Cc1cc(NC(=O)[C@H](CCN)NC(=O)[C@@H]2Cc3ccccc3CN2C(=O)CCC(=O)N2CCCCC2C#N)ccc1Cl (stereo partly drawn) [Compound 12-84] |
| 50 to 250 nM | Cc1cc(NC(=O)[C@H](CCN)NC(=O)[C@@H]2Cc3ccccc3CN2C(=O)CCC(=O)NC(C)(C)C)ccc1Cl [Compound 12-83] |
| 250 to 500 nM | Cc1cc(NC(=O)[C@H](CCN)NC(=O)[C@@H]2Cc3ccccc3CN2C(=O)CCC(=O)N(C)c2ccccc2)ccc1Cl [Compound 12-124] |
| < 50 nM | Cc1cc(NC(=O)[C@H](CCN)NC(=O)[C@@H]2Cc3ccccc3CN2C(=O)CCC(=O)N2CC3(CCCCC3)C2)ccc1Cl [Compound 12-7] |
| < 50 nM | Cc1cc(NC(=O)[C@H](CCN)NC(=O)[C@@H]2Cc3ccccc3CN2C(=O)CCC(=O)N2CCCCC2(C)C)ccc1Cl [Compound 12-26] |

| EC50 | Compound |
| --- | --- |
| 50 to 250 nM | O=C(CCC(=O)N1Cc2ccccc2C[C@H]1C(=O)N[C@@H](CCN1CCC(F)(F)CC1)C(=O)Nc1ccc(Cl)c(Cl)c1F)c1ccccc1 [Compound 23-2] |
| < 50 nM | CC1(C)CCCN(C(=O)CCC(=O)N2Cc3ccccc3C[C@H]2C(=O)N[C@@H](CCN2CCC(O)CC2)C(=O)Nc2ccc(Cl)c(Cl)c2F)C1 [Compound 26-3] |
| < 50 nM | Cc1cc(NC(=O)[C@H](CCN)NC(=O)[C@@H]2Cc3ccccc3CN2C(=O)CCC(=O)N2CC(C(C)(C)O)C2)ccc1Cl [Compound 12-22] |
| < 50 nM | Cc1cc(NC(=O)[C@@H](CCN)NC(=O)[C@@H]2Cc3ccccc3CN2C(=O)CCC(=O)N2CCCOCC2)ccc1Cl [Compound 12-21] |
| 50 to 250 nM | Cc1cccc(NC(=O)C2(NC(=O)[C@@H]3Cc4ccccc4CN3C(=O)CCC(=O)c3ccccc3)CCNCC2)c1F [Compound 13-3] |
| 250 to 500 nM | NCC[C@H](NC(=O)[C@@H]1Cc2ccccc2CN1C(=O)CCC(=O)N1CCC[C@@H]1c1ccccc1)C(=O)Nc1ccc(Cl)c(Cl)c1F [Compound 12-148] |
| < 50 nM | Cc1cc(NC(=O)[C@H](CCN)NC(=O)[C@@H]2Cc3ccccc3CN2C(=O)CCC(=O)N2CC(C)(c3ccccc3)C2)ccc1Cl [Compound 12-11] |
| > 500 nM | Cc1cc(NC(=O)[C@H](CCN)NC(=O)[C@@H]2Cc3ccccc3CN2C(=O)CCC(=O)NC2(C(F)(F)F)CC2)ccc1Cl [Compound 12-85] |
| 250 to 500 nM | Cc1ccc(C#N)cc1NC(=O)[C@H](CCN)NC(=O)[C@@H]1Cc2ccccc2CN1C(=O)CCC(=O)c1ccccc1 [Compound 14-20] |
| < 50 nM | Cc1cc(NC(=O)[C@H](CCN)NC(=O)[C@@H]2Cc3ccccc3CN2C(=O)CCC(=O)N2CCC(C)(C)CC2)ncc1Cl [Compound 12-159] |
| > 500 nM | COc1c(NC(=O)[C@H](CCN)NC(=O)[C@@H]2Cc3ccccc3CN2C(=O)CCC(=O)c2ccccc2)ccc(Cl)c1Cl [Compound 14-27] |
| < 50 nM | Cc1cccc(NC(=O)[C@H](CCN2CCC(O)CC2)NC(=O)[C@@H]2Cc3ccccc3CN2C(=O)CCC(=O)c2ccccc2)c1F [Compound 28-2] |
| 50 to 250 nM | COC[C@@H]1CCCN1C(=O)CCC(=O)N1Cc2ccccc2C[C@H]1C(=O)N[C@@H](CCN)C(=O)Nc1ccc(Cl)c(C)c1 [Compound 12-134] |
| < 50 nM | Cc1cc(NC(=O)[C@H](CCN)NC(=O)[C@@H]2Cc3ccccc3CN2C(=O)CCC(=O)N2CCC[C@@H]2CF)ccc1Cl [Compound 12-144] |
| < 50 nM | CC[C@@H]1CCCN1C(=O)CCC(=O)N1Cc2ccccc2C[C@H]1C(=O)N[C@@H](CCN)C(=O)Nc1ccc(Cl)c(C)c1 [Compound 12-65] |
| < 50 nM | CC1(C)CCCN1C(=O)CCC(=O)N1Cc2cc(F)ccc2C[C@H]1C(=O)N[C@@H](CCN)C(=O)Nc1ccc(Cl)c(Cl)c1F [Compound 15-61] |
| < 50 nM | Cc1cc(NC(=O)[C@H](CCN)NC(=O)[C@@H]2Cc3ccccc3CN2C(=O)CCC(=O)N2CCCC2(C)C)ccc1Cl [Compound 12-31] |
| < 50 nM | Cc1cc(NC(=O)[C@H](CCN)NC(=O)[C@@H]2Cc3ccccc3CN2C(=O)CCC(=O)N2CCCC[C@H]2C)ccc1Cl [Compound 12-25] |

Further lines, the molecule ahead of its results:

| Compound | EC50 |
| --- | --- |
| Cc1cc(NC(=O)[C@H](CCN)NC(=O)[C@@H]2Cc3ccccc3CN2C(=O)CCC(=O)c2ccccc2)ccc1C(F)(F)F [Compound 2-27] | 50 to 250 nM |
| NCC[C@H](NC(=O)[C@@H]1Cc2ccccc2CN1C(=O)CCC(=O)c1ccccc1)C(=O)Nc1ccc2c(c1)CCC2=O [Compound 2-69] | > 500 nM |
| CCc1cc(Cl)c(C)cc1NC(=O)[C@H](CCN)NC(=O)[C@@H]1Cc2ccccc2CN1C(=O)CCC(=O)c1ccccc1 [Compound 2-41] | 50 to 250 nM |
| Cc1cc(NC(=O)[C@H](CCCNC(C)C)NC(=O)[C@@H]2Cc3ccccc3CN2C(=O)CCC(=O)c2ccccc2)ccc1Cl [Compound 8-5] | < 50 nM |
| Cc1cc(NC(=O)[C@H](CCN)NC(=O)[C@@H]2Cc3ccccc3CN2C(=O)CCC(=O)N2CCCC23CCC3)cc(C)c1Cl [Compound 10-10] | < 50 nM |
| NCC[C@H](NC(=O)[C@@H]1Cc2ccccc2CN1C(=O)CCC(=O)c1ccccc1)C(=O)Nc1cc2c(cc1O)CCC2 [Compound 2-74] | 50 to 250 nM |
| COc1cc(C)c(C)cc1NC(=O)[C@H](CCN)NC(=O)[C@@H]1Cc2ccccc2CN1C(=O)CCC(=O)c1ccccc1 [Compound 2-79] | < 50 nM |
| CCc1ccc(NC(=O)[C@H](CCCCN)NC(=O)[C@@H]2Cc3ccccc3CN2C(=O)CCC(=O)c2ccccc2)cc1CC [Compound 1-16] | 50 to 250 nM |
| COc1nccc(C[C@H](NC(=O)[C@@H]2Cc3ccccc3CN2C(=O)CCC(=O)c2ccccc2)C(=O)Nc2ccc(Cl)c(C)c2)n1 [Compound 3-11] | 250 to 500 nM |
| Cc1ccc(NC(=O)[C@H](CCN)NC(=O)[C@@H]2Cc3ccccc3CN2C(=O)CCC(=O)c2ccccc2)c(F)c1 [Compound 2-31] | 50 to 250 nM |
| Cc1cc(NC(=O)[C@H](Cc2ccnc(N)c2)NC(=O)[C@@H]2Cc3ccccc3CN2C(=O)CCC(=O)c2ccccc2)ccc1Cl [Compound 3-10] | 50 to 250 nM |
| Cc1cc(NC(=O)[C@H](Cc2c[nH]cn2)NC(=O)[C@@H]2Cc3ccccc3CN2C(=O)CCC(=O)c2ccccc2)ccc1Cl [Compound 4-8] | < 50 nM |
| COc1cc(C(F)(F)F)c(C)cc1NC(=O)[C@H](CCN)NC(=O)[C@@H]1Cc2ccccc2CN1C(=O)CCC(=O)c1ccccc1 [Compound 2-76] | 50 to 250 nM |
| Cc1ccc(NC(=O)[C@H](CCCCN)NC(=O)[C@@H]2Cc3ccccc3CN2C(=O)CCC(=O)c2ccccc2)cc1C [Compound 1-29] | < 50 nM |
| COc1ccc(C)cc1NC(=O)[C@H](CCN)NC(=O)[C@@H]1Cc2ccccc2CN1C(=O)CCC(=O)c1ccccc1 [Compound 1-38] | < 50 nM |
| Cc1cc(NC(=O)[C@H](CCCCN)NC(=O)[C@@H]2Cc3ccccc3CN2C(=O)CCC(=O)c2ccc(F)c(F)c2)ccc1Cl [Compound 7-4] | 250 to 500 nM |
| Cc1cc(NC(=O)[C@H](CCCCN)NC(=O)[C@@H]2Cc3ccccc3CN2C(=O)CCC(=O)c2cccc(C(F)(F)F)c2)ccc1Cl [Compound 7-8] | < 50 nM |
